#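 Values below derive from 48-hour exposures of cells grown in 96-well plates, with endpoints linearly interpolated between the two concentrations bracketing the appropriate inhibition level. TGI is the concentration that stops growth completely.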
# Columns and labels:
# Assay in all cases: growth of human tumour cells (NCI), 48 h
# [1] = test system: HL-60(TB) leukemia
# [2] = test system: CCRF-CEM leukemia
# [3] = test system: MCF7 breast
# [4] = test system: RXF 393 renal
# [5] = test system: ACHN renal
# [6] = test system: EKVX NSCLC
# [7] = test system: 786-0 renal
# [8] = test system: PC-3 prostate
# [9] = test system: SF-268 CNS
# [10] = test system: NCI-H226 lung
SMILES,TGI [1],TGI [2],TGI [3],TGI [4],TGI [5],TGI [6],TGI [7],TGI [8],TGI [9],TGI [10]
COc1ccc(/C=C2\CN(C)Cc3c2[nH]c(=O)c(C#N)c3-c2ccc(OC)cc2)cc1,31.8 µM,> 100 µM,> 100 µM,63.3 µM,> 100 µM,> 100 µM,51.1 µM,> 100 µM,> 100 µM,> 100 µM
CC(=O)NC1=C(C)C(=O)c2c(nc3n2CC[C@H]3OC(C)=O)C1=O,8.97 µM,> 100 µM,3.37 µM,3.12 µM,9.34 µM,17.5 µM,4.32 µM,1.99 µM,10.7 µM,29.7 µM
CCS(=O)(=O)c1c2cc(OC)ccc2nc2ccc(OC)cc12,> 100 µM,> 100 µM,> 100 µM,> 100 µM,> 100 µM,> 100 µM,> 100 µM,> 100 µM,> 100 µM,> 100 µM
CC(=N\N=C\c1ccccn1)/C(C)=N/N=C(C)/C(C)=N/N=C(C)/C(C)=N/N=C/c1ccccn1,> 100 µM,> 100 µM,> 100 µM,> 100 µM,> 100 µM,> 100 µM,> 100 µM,> 100 µM,> 100 µM,> 100 µM
CCOC(=O)N(C)C1(c2ccccc2)CCN(CCCC(=O)c2ccc(F)cc2)CC1,79.1 µM,> 100 µM,85.2 µM,> 100 µM,> 100 µM,> 100 µM,88.7 µM,> 100 µM,> 100 µM,> 100 µM
NCCCCNC1(c2cc3ccccc3s2)CCCCC1,12.6 µM,5.44 µM,9.75 µM,14.9 µM,23.2 µM,29.1 µM,3.95 µM,17.3 µM,13.5 µM,34 µM
COc1cc(C(SCc2ccccc2)SCc2ccccc2)ccc1O,> 10 µM,> 10 µM,> 10 µM,> 10 µM,> 10 µM,> 10 µM,> 10 µM,> 10 µM,> 10 µM,> 10 µM
Nc1c(S(=O)(=O)O)cc(Nc2cccc(S(=O)(=O)/C=C/S(=O)(=O)O)c2)c2c1C(=O)c1ccccc1C2=O,> 100 µM,> 100 µM,> 100 µM,> 100 µM,> 100 µM,> 100 µM,> 100 µM,> 100 µM,> 100 µM,> 100 µM
CCOc1cc(C2SCC(=O)N2c2nc3cc4sc(N5C(=O)CSC5c5ccc(O)c(OCC)c5)nc4cc3s2)ccc1O (stereo not given),> 100 µM,> 84.2 µM,> 86.3 µM,> 100 µM,> 100 µM,> 100 µM,> 100 µM,> 100 µM,> 100 µM,> 94.4 µM
Cc1cc(N=C2C=C(Nc3cc(C)on3)C(=O)c3ccccc32)no1,> 100 µM,> 100 µM,63 µM,> 65.9 µM,> 100 µM,> 100 µM,98.8 µM,> 100 µM,> 100 µM,> 100 µM
CS(=O)(=O)O.[Ag],11.4 µM,6.64 µM,24.8 µM,42 µM,16.8 µM,38.4 µM,29.9 µM,27.2 µM,39.7 µM,51.4 µM
Nc1nc2cc(CNc3ccc(C(=O)NC(CCC(=O)O)C(=O)O)cc3)ccc2nc1-c1ccccc1 (stereo not given),> 10 µM,> 10 µM,> 10 µM,> 10 µM,> 10 µM,> 10 µM,> 10 µM,> 10 µM,> 10 µM,> 10 µM
O=C(OCc1ccccc1)N1c2cc([N+](=O)[O-])ccc2C(=O)N2CCC[C@H]2C1O (stereo not given in full),> 100 µM,> 100 µM,> 100 µM,> 100 µM,> 100 µM,> 100 µM,> 100 µM,> 100 µM,> 100 µM,> 100 µM
NC(=O)NCCCC(NC(=O)OCCCCCn1ccc(=O)[nH]c1=O)C(=O)O (stereo not given),> 100 µM,> 100 µM,> 100 µM,> 100 µM,> 100 µM,> 100 µM,> 100 µM,> 100 µM,> 100 µM,> 100 µM
C[C@H](CCC1=NCCN1)[C@H]1CC[C@H]2[C@@H]3CC[C@@H]4C[C@H](O)CC[C@]4(C)[C@H]3C[C@H](O)[C@]12C,36 µM,30.4 µM,28.5 µM,35.9 µM,30.5 µM,34.4 µM,33 µM,20.7 µM,20.5 µM,31 µM
